Experimental data taken from US20100184674A1, “PROADRENOMEDULLIN ALONE OR IN COMBINATION WITH BIG GASTRIN I AS A THERAPEUTIC AGENT” (priority 2007, published 2010).
Where no end group is shown, it is not given here. [ ]: non-standard residue; d: D form. pGlu = O=C1CC[C@@H](C(=O)O)N1

Test system: drug-resistant Mycobacterium tuberculosis
Assay type: cell-based
Settings: 10 micrograms per ml; seven days; strain resistant against PAS, streptomycin and isoniazid

Row | Substance | inhibition of the growth of Mycobacterium tuberculosis
1 | Ala-Arg-Leu-Asp-Val-Ala-Ser-Glu-Phe-Arg-Lys-Lys-Trp-Asn-Lys-Trp-Ala-Leu-Ser-Arg-NH2 (ARLDVASEFRKKWNKWALSR-NH2) [Peptide 1] | 100%
2 | Pyr-Leu-Gly-Pro-Gln-Gly-Pro-Pro-His-Leu-Val-Ala-Asp-Pro-Ser-Lys-Lys-Gln-Gly-Pro-Trp-Leu-Glu-Glu-Glu-Glu-Glu-Ala-Tyr-Gly-Trp-Met-Asp-Phe-NH2 ([pGlu]LGPQGPPHLVADPSKKQGPWLEEEEEAYGWMDF-NH2; SMILES CSCC[C@H](NC(=O)[C@H](Cc1c[nH]c2ccccc12)NC(=O)CNC(=O)[C@H](Cc1ccc(O)cc1)NC(=O)[C@H](C)NC(=O)[C@H](CCC(=O)O)NC(=O)[C@H](CCC(=O)O)NC(=O)[C@H](CCC(=O)O)NC(=O)[C@H](CCC(=O)O)NC(=O)[C@H](CCC(=O)O)NC(=O)[C@H](CC(C)C)NC(=O)[C@H](Cc1c[nH]c2ccccc12)NC(=O)[C@@H]1CCCN1C(=O)CNC(=O)[C@H](CCC(N)=O)NC(=O)[C@H](CCCCN)NC(=O)[C@H](CCCCN)NC(=O)[C@H](CO)NC(=O)[C@@H]1CCCN1C(=O)[C@H](CC(=O)O)NC(=O)[C@H](C)NC(=O)[C@@H](NC(=O)[C@H](CC(C)C)NC(=O)[C@H](Cc1c[nH]cn1)NC(=O)[C@@H]1CCCN1C(=O)[C@@H]1CCCN1C(=O)CNC(=O)[C@H](CCC(N)=O)NC(=O)[C@@H]1CCCN1C(=O)CNC(=O)[C@H](CC(C)C)NC(=O)[C@@H]1CCC(=O)N1)C(C)C)C(=O)N[C@@H](CC(=O)O)C(=O)N[C@@H](Cc1ccccc1)C(N)=O) [Peptide 2] | 100%
